Columns and labels:
Assay in all cases: relative viability (nuclei count vs DMSO), 5 days (fraction); higher = more cells survive
[1] = system: EKVX
In short: (§1)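 Lung cancer cell lines in 1536-well plates got either a single drug or a fixed anchor-drug dose together with five library-drug doses (not always all listed) in √10 steps, by pin tool, on the day after seeding. Nuclei were counted after 5 days, and relative viability is the treated-to-vehicle ratio of nuclei counts. Values are medians of duplicate plates.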

[2] = system: NCI-H1666
In short: as §1

[3] = system: NCI-H2342
In short: as §1

[4] = system: HCC-827
In short: as §1

[5] = system: NCI-H647
In short: as §1

[6] = system: NCI-H650
In short: as §1

[7] = system: HCC-44
In short: as §1

[8] = system: 201T
In short: as §1

[9] = system: NCI-H1975
In short: as §1

[10] = system: COR-L 105
In short: as §1

[11] = system: NCI-H2170
In short: as §1

[12] = system: NCI-H1437
In short: as §1

[13] = system: H3255
In short: as §1

[14] = system: LCLC-97TM1
In short: as §1

[15] = system: LU99A
In short: as §1

[16] = system: EPLC-272H
In short: as §1

[17] = system: NCI-H2085
In short: as §1

[18] = system: NCI-H2087
In short: as §1

[19] = system: SW 1573
In short: as §1

[20] = system: BEN
In short: as §1

[21] = system: PC-3 [JPC-3]
In short: as §1

[22] = system: LOU-NH91
In short: as §1

O=c1cc(-c2cccc3c2Sc2ccccc2S3)oc(N2CCOCC2)c1 + COc1cccc2cc(-c3nc([C@H]4CC[C@H](C(=O)O)CC4)n4ncnc(N)c34)[nH]c12 [OSI-027] (partner 0.5 µM)
relative viability ([1]; first compound 0.08 µM): 0.722
relative viability ([1]; first compound 0.253 µM): 0.812
relative viability ([1]; first compound 0.8 µM): 0.678
relative viability ([1]; first compound 2.53 µM): 0.715
relative viability ([1]; first compound 8 µM): 0.67
relative viability ([2]; first compound 0.08 µM): 0.838
relative viability ([2]; first compound 0.253 µM): 1.06
relative viability ([2]; first compound 0.8 µM): 0.923
relative viability ([2]; first compound 2.53 µM): 0.832
relative viability ([2]; first compound 8 µM): 0.885
relative viability ([3]; first compound 0.08 µM): 0.569
relative viability ([3]; first compound 0.253 µM): 0.607
relative viability ([3]; first compound 0.8 µM): 0.545
relative viability ([3]; first compound 2.53 µM): 0.594
relative viability ([3]; first compound 8 µM): 0.568
relative viability ([4]; first compound 0.08 µM): 0.802
relative viability ([4]; first compound 0.253 µM): 0.877
relative viability ([4]; first compound 0.8 µM): 0.947
relative viability ([4]; first compound 2.53 µM): 0.643
relative viability ([4]; first compound 8 µM): 0.897
relative viability ([5]; first compound 0.08 µM): 0.636
relative viability ([5]; first compound 0.253 µM): 0.813
relative viability ([5]; first compound 0.8 µM): 0.588
relative viability ([5]; first compound 2.53 µM): 0.513
relative viability ([5]; first compound 8 µM): 0.623
relative viability ([6]; first compound 0.08 µM): 0.469
relative viability ([6]; first compound 0.253 µM): 0.548
relative viability ([6]; first compound 0.8 µM): 0.508
relative viability ([6]; first compound 8 µM): 0.562
relative viability ([7]; first compound 0.08 µM): 0.419
relative viability ([7]; first compound 0.253 µM): 0.561
relative viability ([7]; first compound 2.53 µM): 0.343
relative viability ([7]; first compound 8 µM): 0.499
relative viability ([8]; first compound 0.08 µM): 0.876
relative viability ([8]; first compound 0.8 µM): 0.591
relative viability ([8]; first compound 2.53 µM): 0.695
relative viability ([8]; first compound 8 µM): 0.734
relative viability ([9]; first compound 0.08 µM): 0.74
relative viability ([9]; first compound 0.253 µM): 0.993
relative viability ([9]; first compound 0.8 µM): 0.793
relative viability ([9]; first compound 2.53 µM): 0.587
relative viability ([9]; first compound 8 µM): 0.503
relative viability ([10]; first compound 0.08 µM): 0.686
relative viability ([10]; first compound 0.253 µM): 0.707
relative viability ([10]; first compound 0.8 µM): 0.636
relative viability ([10]; first compound 2.53 µM): 0.686
relative viability ([10]; first compound 8 µM): 0.734
relative viability ([11]; first compound 0.08 µM): 0.78
relative viability ([11]; first compound 0.253 µM): 0.801
relative viability ([11]; first compound 0.8 µM): 0.727
relative viability ([11]; first compound 2.53 µM): 0.508
relative viability ([11]; first compound 8 µM): 0.717
relative viability ([12]; first compound 0.08 µM): 0.885
relative viability ([12]; first compound 0.253 µM): 1.17
relative viability ([12]; first compound 0.8 µM): 1.01
relative viability ([12]; first compound 2.53 µM): 0.891
relative viability ([12]; first compound 8 µM): 1.02
relative viability ([13]; first compound 0.08 µM): 0.61
relative viability ([13]; first compound 0.253 µM): 0.604
relative viability ([13]; first compound 0.8 µM): 0.541
relative viability ([13]; first compound 2.53 µM): 0.569
relative viability ([13]; first compound 8 µM): 0.671
relative viability ([14]; first compound 0.08 µM): 0.48
relative viability ([14]; first compound 0.253 µM): 0.407
relative viability ([14]; first compound 0.8 µM): 0.539
relative viability ([14]; first compound 2.53 µM): 0.519
relative viability ([14]; first compound 8 µM): 0.575
relative viability ([15]; first compound 0.08 µM): 0.282
relative viability ([15]; first compound 0.253 µM): 0.285
relative viability ([15]; first compound 0.8 µM): 0.308
relative viability ([15]; first compound 2.53 µM): 0.335
relative viability ([15]; first compound 8 µM): 0.303
relative viability ([16]; first compound 0.08 µM): 0.254
relative viability ([16]; first compound 0.253 µM): 0.279
relative viability ([16]; first compound 0.8 µM): 0.254
relative viability ([16]; first compound 2.53 µM): 0.251
relative viability ([16]; first compound 8 µM): 0.278
relative viability ([17]; first compound 0.08 µM): 0.635
relative viability ([17]; first compound 0.253 µM): 0.88
relative viability ([17]; first compound 0.8 µM): 0.695
relative viability ([17]; first compound 2.53 µM): 0.512
relative viability ([17]; first compound 8 µM): 0.525
relative viability ([18]; first compound 0.08 µM): 0.352
relative viability ([18]; first compound 0.253 µM): 0.649
relative viability ([18]; first compound 0.8 µM): 0.589
relative viability ([18]; first compound 2.53 µM): 0.416
relative viability ([18]; first compound 8 µM): 0.452
relative viability ([19]; first compound 0.08 µM): 0.514
relative viability ([19]; first compound 0.253 µM): 0.797
relative viability ([19]; first compound 0.8 µM): 0.703
relative viability ([19]; first compound 2.53 µM): 0.613
relative viability ([19]; first compound 8 µM): 0.728
relative viability ([20]; first compound 0.08 µM): 0.279
relative viability ([20]; first compound 0.253 µM): 0.268
relative viability ([20]; first compound 0.8 µM): 0.281
relative viability ([20]; first compound 2.53 µM): 0.298
relative viability ([20]; first compound 8 µM): 0.321
relative viability ([21]; first compound 0.08 µM): 0.763
relative viability ([21]; first compound 0.253 µM): 0.8
relative viability ([21]; first compound 0.8 µM): 0.783
relative viability ([21]; first compound 2.53 µM): 0.698
relative viability ([21]; first compound 8 µM): 0.787
relative viability ([22]; first compound 0.08 µM): 0.687
relative viability ([22]; first compound 0.253 µM): 0.736
relative viability ([22]; first compound 0.8 µM): 0.594
relative viability ([22]; first compound 2.53 µM): 0.628
relative viability ([22]; first compound 8 µM): 0.758

From the supplement of paper PMC10307832
